Article PMC7438494 (Communications Biology, 2020)
“And” between values parts separate entries of the source, which are not always exact repeats. Equal entries are not always repeated. Where two headings read alike, the source gives them in different places.

Biological target: human ATP synthase (Homo sapiens, UniProt P00846+P05496)
Experiment: biochemical
Format: biochemical
[1] = BDQ 0.65 uM, […], frozen human mito, BDQ in DMSO
[2] = BDQ 0.65 uM, cyanide sensitive, 60 min, frozen human mito, BDQ in DMSO
[3] = BDQ 1 uM, […], frozen human mito, BDQ in DMSO
[4] = BDQ 1 uM, cyanide sensitive, human
[5] = BDQ 2 uM, […], frozen human mito, BDQ in DMSO
[6] = BDQ 5 uM, […], frozen human mito, BDQ in DMSO
[7] = BDQ 5 uM, cyanide sensitive, human
[8] = BDQ 10 uM, […], frozen human mito, BDQ in DMSO
[9] = BDQ 10 uM, cyanide sensitive, human
[10] = Human Mito, 1st exp (12-14-18), Bedaquiline 0.05 μM, 60 min
[11] = Human Mito, 2nd exp (12-17-18), Bedaquiline 0.05 μM, 60 min

With `COc1nc2ccc(Br)cc2cc1[C@@H](c1ccccc1)[C@@](O)(CCN(C)C)c1cccc2ccccc12` [BDQ, Bedaquiline] the “cyanide sensitive % inhibition” value (BDQ 0.5 uM, cyanide sensitive, human) was 66.6% and 70.0% and 42.0% and 48.8% and 35.1%, the “% activity” value [1] was 30.2506% and the “% inhibition” value [1] was 69.7494%. The “ATP produced, nmol/min/mg” value [1] was 2.55 nmol/min/mg, the “ATP produced, pmol/min/mg” value [1] was 2547.17 pmol/min/mg and the activity at 0.65 µM (BDQ 0.65 uM, […], frozen human mito, BDQ in DMSO, read-out: % activity) was 30.3%. The activity at 0.65 µM (BDQ 0.65 uM, […], frozen human mito, BDQ in DMSO, read-out: % activity, cyanide sensitive) was 18.5%, the inhibition at 0.65 µM (BDQ 0.65 uM, […], frozen human mito, BDQ in DMSO, read-out: % inhibition) was 69.7% and the inhibition at 0.65 µM (BDQ 0.65 uM, […], frozen human mito, BDQ in DMSO, read-out: % inhibition, cyanide sensitive) was 81.5%. The “cyanide sensitive ATP produced, nmol/min/mg” value [2] was 1.33 nmol/min/mg, the “cyanide sensitive ATP produced, pmol/min/mg” value [2] was 1329.08 pmol/min/mg and the “cyanide sensitive % inhibition” value (BDQ 0.85 uM, cyanide sensitive, human) was 67.5% and 100.0% and 66.9%. For the same molecule, the “% activity” value [3] was 17.1322%, the “% activity, cyanide sensitive” value [3] was 3.117% and the “% inhibition” value [3] was 82.8678%. The “ATP produced, nmol/min/mg” value [3] was 1.44 nmol/min/mg, the “ATP produced, pmol/min/mg” value [3] was 1442.57 pmol/min/mg and the activity at 1 µM (BDQ 1 uM, […], frozen human mito, BDQ in DMSO, read-out: % activity) was 17.1%. The inhibition at 1 µM (BDQ 1 uM, […], frozen human mito, BDQ in DMSO, read-out: % inhibition) was 82.9%, the inhibition at 1 µM (BDQ 1 uM, […], frozen human mito, BDQ in DMSO, read-out: % inhibition, cyanide sensitive) was 96.9% and the “cyanide sensitive ATP produced, pmol/min/mg” value (BDQ 1 uM, cyanide sensitive, 60 min, frozen human mito, BDQ in DMSO) was 224.48 pmol/min/mg. For the same molecule, the “cyanide sensitive % activity” value [4] was -0.8% and 8.7% and -0.171%, the “cyanide sensitive % inhibition” value [4] was 91.3% and 100.2% and the inhibition at 1 µM (BDQ 1 uM, cyanide sensitive, human, read-out: cyanide sensitive % inhibition) was 101%. For the same molecule, the “% activity” value [5] was 12.0221%, the “% inhibition” value [5] was 87.9779% and the “ATP produced, nmol/min/mg” value [5] was 1.01 nmol/min/mg. The “ATP produced, pmol/min/mg” value [5] was 1012.29 pmol/min/mg, the activity at 2 µM (BDQ 2 uM, […], frozen human mito, BDQ in DMSO, read-out: % activity) was 12% and the activity at 2 µM (BDQ 2 uM, […], frozen human mito, BDQ in DMSO, read-out: % activity, cyanide sensitive) was -2.86%. The inhibition at 2 µM (BDQ 2 uM, […], frozen human mito, BDQ in DMSO, read-out: % inhibition) was 88%, the inhibition at 2 µM (BDQ 2 uM, […], frozen human mito, BDQ in DMSO, read-out: % inhibition, cyanide sensitive) was 103% and the “cyanide sensitive ATP produced, pmol/min/mg” value (BDQ 2 uM, cyanide sensitive, 60 min, frozen human mito, BDQ in DMSO) was -205.80 pmol/min/mg. For the same molecule, the “cyanide sensitive % inhibition” value (BDQ 2 uM, cyanide sensitive, human) was 98.3% and 117.8% and 98.9% and 97.2% and 102.7%, the “% activity” value [6] was 17.1136% and the “% activity, cyanide sensitive” value [6] was 3.095%. For the same molecule, the “% inhibition” value [6] was 82.8864%, the “ATP produced, nmol/min/mg” value [6] was 1.44 nmol/min/mg and the “ATP produced, pmol/min/mg” value [6] was 1441.00 pmol/min/mg. For the same molecule, the activity at 5 µM (BDQ 5 uM, […], frozen human mito, BDQ in DMSO, read-out: % activity) was 17.1%, the inhibition at 5 µM (BDQ 5 uM, […], frozen human mito, BDQ in DMSO, read-out: % inhibition) was 82.9% and the inhibition at 5 µM (BDQ 5 uM, […], frozen human mito, BDQ in DMSO, read-out: % inhibition, cyanide sensitive) was 96.9%. The “cyanide sensitive ATP produced, pmol/min/mg” value (BDQ 5 uM, cyanide sensitive, 60 min, frozen human mito, BDQ in DMSO) was 222.91 pmol/min/mg, the “cyanide sensitive % activity” value [7] was -7.0% and -10.1% and -4.1% and -2.6% and -5.6% and the “cyanide sensitive % inhibition” value [7] was 107.0% and 110.1% and 102.6% and 105.6%. The inhibition at 5 µM (BDQ 5 uM, cyanide sensitive, human, read-out: cyanide sensitive % inhibition) was 104%, the “% activity” value [8] was 14.9815% and the “% activity, cyanide sensitive” value [8] was 0.6024%. For the same molecule, the “% inhibition” value [8] was 85.0185%, the “ATP produced, nmol/min/mg” value [8] was 1.26 nmol/min/mg and the “ATP produced, pmol/min/mg” value [8] was 1261.47 pmol/min/mg. It also gave an activity at 10 µM (BDQ 10 uM, […], frozen human mito, BDQ in DMSO, read-out: % activity) of 15%, an inhibition at 10 µM (BDQ 10 uM, […], frozen human mito, BDQ in DMSO, read-out: % inhibition) of 85% and an inhibition at 10 µM (BDQ 10 uM, […], frozen human mito, BDQ in DMSO, read-out: % inhibition, cyanide sensitive) of 99.4%. The “cyanide sensitive ATP produced, pmol/min/mg” value (BDQ 10 uM, cyanide sensitive, 60 min, frozen human mito, BDQ in DMSO) was 43.39 pmol/min/mg, the “cyanide sensitive % activity” value [9] was -1.4% and the “cyanide sensitive % inhibition” value [9] was 101.4%. It also gave an inhibition at 10 µM (BDQ 10 uM, cyanide sensitive, human, read-out: cyanide sensitive % inhibition) of 102%, a Cyanide sensitive [10] of 4.658 nmol/min/mg and an activity at 0.05 µM [10] of 64.1%. For the same molecule, the Cyanide sensitive (Human Mito, 1st exp (12-14-18), Bedaquiline 0.1 μM, 60 min) was 6.127 nmol/min/mg, the activity at 0.1 µM (Human Mito, 1st exp (12-14-18), Bedaquiline 0.1 μM, 60 min, read-out: % activity) was 84.3% and the Cyanide sensitive (Human Mito, 1st exp (12-14-18), Bedaquiline 0.2 μM, 60 min) was 4.027 nmol/min/mg. The activity at 0.2 µM (Human Mito, 1st exp (12-14-18), Bedaquiline 0.2 μM, 60 min, read-out: % activity) was 55.4%, the Cyanide sensitive (Human Mito, 1st exp (12-14-18), Bedaquiline 0.5 μM, 60 min) was 2.18 nmol/min/mg and the activity at 0.5 µM (Human Mito, 1st exp (12-14-18), Bedaquiline 0.5 μM, 60 min, read-out: % activity) was 30%. For the same molecule, the Cyanide sensitive (Human Mito, 1st exp (12-14-18), Bedaquiline 0.65 μM, 60 min) was -0.9359 nmol/min/mg, the activity at 0.65 µM (Human Mito, 1st exp (12-14-18), Bedaquiline 0.65 μM, 60 min, read-out: % activity) was -12.9% and the Cyanide sensitive (Human Mito, 1st exp (12-14-18), Bedaquiline 0.85 μM, 60 min) was -0.002656 nmol/min/mg. The activity at 0.85 µM (Human Mito, 1st exp (12-14-18), Bedaquiline 0.85 μM, 60 min, read-out: % activity) was -0.0365%, the Cyanide sensitive (Human Mito, 1st exp (12-14-18), Bedaquiline 2 μM, 60 min) was -1.2927 nmol/min/mg and the activity at 2 µM (Human Mito, 1st exp (12-14-18), Bedaquiline 2 μM, 60 min, read-out: % activity) was -17.8%. For the same molecule, the Cyanide sensitive (Human Mito, 1st exp (12-14-18), Bedaquiline 5 μM, 60 min) was -0.5097 nmol/min/mg, the activity at 5 µM (Human Mito, 1st exp (12-14-18), Bedaquiline 5 μM, 60 min, read-out: % activity) was -7.01% and the activity at 0.1 µM (Human Mito, 1st exp (18_12_14), BDQ 0.1 uM, read-out: Cyanide sensitive % activity) was 73.2%. The activity at 0.2 µM (Human Mito, 1st exp (18_12_14), BDQ 0.2 uM, read-out: Cyanide sensitive % activity) was 57.7%, the activity at 0.5 µM (Human Mito, 1st exp (18_12_14), BDQ 0.5 uM, read-out: Cyanide sensitive % activity) was 44% and the activity at 0.85 µM (Human Mito, 1st exp (18_12_14), BDQ 0.85 uM, read-out: Cyanide sensitive % activity) was 16.6%. For the same molecule, the activity at 2 µM (Human Mito, 1st exp (18_12_14), BDQ 2 uM, read-out: Cyanide sensitive % activity) was -8.33%, the Cyanide sensitive [11] was 3.788 nmol/min/mg and the activity at 0.05 µM [11] was 43.8%. It also gave a Cyanide sensitive (Human Mito, 2nd exp (12-17-18), Bedaquiline 0.1 μM, 60 min) of 5.369 nmol/min/mg and an activity at 0.1 µM (Human Mito, 2nd exp (12-17-18), Bedaquiline 0.1 μM, 60 min, read-out: % activity) of 62%.
